Data from US20120010075A1 (priority 2009, published 2012).

System: Leptosphaeria nodorum (LEPTNO)
Test: In vitro fungitoxicity of hydrazones with and without copper towards Leptosphaeria nodorum (Example 26)
Format: cell-based
Settings: Parastagonospora nodorum, 72 h, compound 0.05 μg/mL, copper-minus medium, 72 h at 25° C.; read-out: LEPTNO % Inhn. Minus Copper Observed

| Structure (SMILES) | inhibition of growth at 0.05 µg/mL [%] |
| --- | --- |
| C/C(=N\NC(=O)c1ccccc1Cl)c1cc(Br)ccc1O [Example 291] | 2.2 |
| C/C(=N\NC(=O)c1cccc(Cl)c1)c1cc(Br)ccc1O [Example 292] | 5 |
| O=C(N/N=C/c1ccc(C(F)(F)F)cc1O)c1ccccc1 [Example 294] | 1.7 |
| O=C(N/N=C/c1cc(C(F)(F)F)cc(C(F)(F)F)c1O)c1ccccc1 [Example 295] | 5.8 |

Same assay, conditions: Parastagonospora nodorum, 72 h, copper-minus medium; test compound Concn. 0.05 μg/mL; 72 h at 25° C.; read-out: LEPTNO % Inhn. Minus Copper Observed

| Structure (SMILES) | inhibition of growth at 0.05 µg/mL [%] |
| --- | --- |
| O=C(N/N=C/c1cccc(C(F)(F)F)c1O)c1ccccc1 [Example 296] | 8.3 |
| O=C(N/N=C/c1c(O)cccc1C(F)(F)F)c1ccccc1 [Example 297] | 0 |
| CSc1cc(Br)c(O)c(/C=N/NC(=O)c2ccccc2)c1 [Example 298] | 0.7 |
| N#Cc1cc(Br)c(O)c(/C=N/NC(=O)c2ccccc2)c1 [Example 306] | 0 |
| N#Cc1cc(F)c(O)c(/C=N/NC(=O)c2ccccc2)c1 [Example 307] | 0 |
| Cc1ccc(C(=O)N/N=C/c2cc(Cl)cc(Cl)c2O)c(O)c1 [Example 308] | 37.2 |
| N#Cc1cccc(C(=O)N/N=C/c2cc(Cl)cc(Cl)c2O)c1 [Example 309] | 5.5 |
| N#Cc1ccc(C(=O)N/N=C/c2cc(Cl)cc(Cl)c2O)cc1 [Example 310] | 2.4 |
| C/C(=N\NC(=O)c1ccccc1)c1cc(C)ccc1O [Example 311] | 3.3 |
| C/C(=N\NC(=O)c1ccccc1C)c1cc(C)ccc1O [Example 312] | 3.8 |
| C/C(=N\NC(=O)c1cccc(C)c1)c1cc(C)ccc1O [Example 313] | 8.5 |
| C/C(=N\NC(=O)c1ccc(C)cc1)c1cc(C)ccc1O [Example 314] | 0 |
| C/C(=N\NC(=O)c1ccccc1Cl)c1cc(C)ccc1O [Example 315] | 2.7 |
| C/C(=N\NC(=O)c1cccc(Cl)c1)c1cc(C)ccc1O [Example 316] | 4.5 |
| C/C(=N\NC(=O)c1ccc(Cl)cc1)c1cc(C)ccc1O [Example 317] | 16.3 |
| O=C(N/N=C/c1cc(Cl)c(C(F)(F)F)cc1O)c1ccccc1 [Example 318] | 3.1 |

Same assay, conditions: compound 0.05 μg/mL, copper-plus medium (CuCl2.2H2O), 72 h at 25° C.

| Structure (SMILES) | LEPTNO % Inhn. Plus Copper Observed [%] |
| --- | --- |
| C/C(=N\NC(=O)c1ccccc1Cl)c1cc(Br)ccc1O [Example 291] | 95.4 |
| C/C(=N\NC(=O)c1cccc(Cl)c1)c1cc(Br)ccc1O [Example 292] | 97.6 |
| O=C(N/N=C/c1ccc(C(F)(F)F)cc1O)c1ccccc1 [Example 294] | 94.2 |
| O=C(N/N=C/c1cc(C(F)(F)F)cc(C(F)(F)F)c1O)c1ccccc1 [Example 295] | 98.0 |

Same assay, conditions: copper-plus medium (CuCl2 10 μM); test compound Concn. 0.05 μg/mL; 72 h at 25° C.

| Structure (SMILES) | LEPTNO % Inhn. Plus Copper Observed [%] |
| --- | --- |
| O=C(N/N=C/c1cccc(C(F)(F)F)c1O)c1ccccc1 [Example 296] | 97.7 |
| O=C(N/N=C/c1c(O)cccc1C(F)(F)F)c1ccccc1 [Example 297] | 96.4 |
| CSc1cc(Br)c(O)c(/C=N/NC(=O)c2ccccc2)c1 [Example 298] | 95.0 |
| N#Cc1cc(Br)c(O)c(/C=N/NC(=O)c2ccccc2)c1 [Example 306] | 95.2 |
| N#Cc1cc(F)c(O)c(/C=N/NC(=O)c2ccccc2)c1 [Example 307] | 91.3 |
| Cc1ccc(C(=O)N/N=C/c2cc(Cl)cc(Cl)c2O)c(O)c1 [Example 308] | 97.7 |
| N#Cc1cccc(C(=O)N/N=C/c2cc(Cl)cc(Cl)c2O)c1 [Example 309] | 97.4 |
| N#Cc1ccc(C(=O)N/N=C/c2cc(Cl)cc(Cl)c2O)cc1 [Example 310] | 96.6 |
| C/C(=N\NC(=O)c1ccccc1)c1cc(C)ccc1O [Example 311] | 98.3 |
| C/C(=N\NC(=O)c1ccccc1C)c1cc(C)ccc1O [Example 312] | 97.8 |
| C/C(=N\NC(=O)c1cccc(C)c1)c1cc(C)ccc1O [Example 313] | 98.5 |
| C/C(=N\NC(=O)c1ccc(C)cc1)c1cc(C)ccc1O [Example 314] | 97.7 |
| C/C(=N\NC(=O)c1ccccc1Cl)c1cc(C)ccc1O [Example 315] | 95.8 |
| C/C(=N\NC(=O)c1cccc(Cl)c1)c1cc(C)ccc1O [Example 316] | 97.1 |
| C/C(=N\NC(=O)c1ccc(Cl)cc1)c1cc(C)ccc1O [Example 317] | 97.9 |
| O=C(N/N=C/c1cc(Cl)c(C(F)(F)F)cc1O)c1ccccc1 [Example 318] | 97.3 |

System: Phytophthora infestans
Test: not given
Format: in vivo, Phytophthora infestans on tomato
Settings: hydrazone 50 ppm + 50 μM CuCl2.2H2O, applied 24 h before inoculation, assessed 7 days after inoculation, tomato

| Structure (SMILES) | TLB % Control [%] |
| --- | --- |
| C/C(=N\NC(=O)c1ccccc1Cl)c1cc(Br)ccc1O [Example 291] | 67.0 |
| C/C(=N\NC(=O)c1cccc(Cl)c1)c1cc(Br)ccc1O [Example 292] | 21.0 |
| O=C(N/N=C/c1ccc(C(F)(F)F)cc1O)c1ccccc1 [Example 294] | 72.9 |
| O=C(N/N=C/c1cc(C(F)(F)F)cc(C(F)(F)F)c1O)c1ccccc1 [Example 295] | 89.8 |

Same assay, conditions: hydrazone 50 ppm with 50 μM CuCl2.2H2O, applied 24 h before inoculation; assessed 7 days after inoculation; tomato late blight

| Structure (SMILES) | TLB % Control [%] |
| --- | --- |
| O=C(N/N=C/c1cccc(C(F)(F)F)c1O)c1ccccc1 [Example 296] | 84.7 |
| O=C(N/N=C/c1c(O)cccc1C(F)(F)F)c1ccccc1 [Example 297] | 69.5 |
| CSc1cc(Br)c(O)c(/C=N/NC(=O)c2ccccc2)c1 [Example 298] | 74.6 |
| N#Cc1cc(Br)c(O)c(/C=N/NC(=O)c2ccccc2)c1 [Example 306] | 35.0 |
| N#Cc1cc(F)c(O)c(/C=N/NC(=O)c2ccccc2)c1 [Example 307] | 25.0 |
| Cc1ccc(C(=O)N/N=C/c2cc(Cl)cc(Cl)c2O)c(O)c1 [Example 308] | 96.0 |
| N#Cc1cccc(C(=O)N/N=C/c2cc(Cl)cc(Cl)c2O)c1 [Example 309] | 74.0 |
| N#Cc1ccc(C(=O)N/N=C/c2cc(Cl)cc(Cl)c2O)cc1 [Example 310] | 64.0 |
| C/C(=N\NC(=O)c1ccccc1)c1cc(C)ccc1O [Example 311] | 37.0 |
| C/C(=N\NC(=O)c1ccccc1C)c1cc(C)ccc1O [Example 312] | 1.4 |
| C/C(=N\NC(=O)c1cccc(C)c1)c1cc(C)ccc1O [Example 313] | 28.0 |
| C/C(=N\NC(=O)c1ccc(C)cc1)c1cc(C)ccc1O [Example 314] | 8.8 |
| C/C(=N\NC(=O)c1ccccc1Cl)c1cc(C)ccc1O [Example 315] | 18.0 |
| C/C(=N\NC(=O)c1cccc(Cl)c1)c1cc(C)ccc1O [Example 316] | 14.0 |
| C/C(=N\NC(=O)c1ccc(Cl)cc1)c1cc(C)ccc1O [Example 317] | 24.0 |
| O=C(N/N=C/c1cc(Cl)c(C(F)(F)F)cc1O)c1ccccc1 [Example 318] | 71.2 |

System: not given
Test: not given
Settings: not given

| Structure (SMILES) | melting point [°C] |
| --- | --- |
| C/C(=N\NC(=O)c1ccccc1Cl)c1cc(Br)ccc1O [Example 291] | 198 to 201 |
| C/C(=N\NC(=O)c1cccc(Cl)c1)c1cc(Br)ccc1O [Example 292] | 235 to 240 |
| O=C(N/N=C/c1ccc(C(F)(F)F)cc1O)c1ccccc1 [Example 294] | 215 to 217 |
| O=C(N/N=C/c1cc(C(F)(F)F)cc(C(F)(F)F)c1O)c1ccccc1 [Example 295] | 232 to 234 |
| O=C(N/N=C/c1cccc(C(F)(F)F)c1O)c1ccccc1 [Example 296] | 170 to 173 |
| O=C(N/N=C/c1c(O)cccc1C(F)(F)F)c1ccccc1 [Example 297] | 228 to 230 |
| CSc1cc(Br)c(O)c(/C=N/NC(=O)c2ccccc2)c1 [Example 298] | 207 to 209 |
| N#Cc1cc(Br)c(O)c(/C=N/NC(=O)c2ccccc2)c1 [Example 306] | 290 to 291 |
| N#Cc1cc(F)c(O)c(/C=N/NC(=O)c2ccccc2)c1 [Example 307] | 262 to 263 |
| Cc1ccc(C(=O)N/N=C/c2cc(Cl)cc(Cl)c2O)c(O)c1 [Example 308] | 262 to 269 |
| N#Cc1cccc(C(=O)N/N=C/c2cc(Cl)cc(Cl)c2O)c1 [Example 309] | 252 to 271 |
| N#Cc1ccc(C(=O)N/N=C/c2cc(Cl)cc(Cl)c2O)cc1 [Example 310] | 234 to 270 |
| C/C(=N\NC(=O)c1ccccc1)c1cc(C)ccc1O [Example 311] | 197 to 199 |
| C/C(=N\NC(=O)c1ccccc1C)c1cc(C)ccc1O [Example 312] | 154 to 156 |
| C/C(=N\NC(=O)c1cccc(C)c1)c1cc(C)ccc1O [Example 313] | 182 to 184 |
| C/C(=N\NC(=O)c1ccc(C)cc1)c1cc(C)ccc1O [Example 314] | 206 to 208 |
| C/C(=N\NC(=O)c1ccccc1Cl)c1cc(C)ccc1O [Example 315] | 154 to 158 |
| C/C(=N\NC(=O)c1cccc(Cl)c1)c1cc(C)ccc1O [Example 316] | 231 to 241 |
| C/C(=N\NC(=O)c1ccc(Cl)cc1)c1cc(C)ccc1O [Example 317] | 203 to 210 |
| O=C(N/N=C/c1cc(Cl)c(C(F)(F)F)cc1O)c1ccccc1 [Example 318] | 242 to 243 |
